Source: ChEMBL document CHEMBL2163275, “The lipogenesis pathway as a cancer target” (J Med Chem, 2011)
Blank lines part the entries; values can stand above or below the compound they belong to.

Key:
[1] = biological target: T1, ATP-citrate synthase (Homo sapiens, UniProt P53396); experiment: Inhibition of human recombinant ACLY
T1 sequence (P53396 whole entry): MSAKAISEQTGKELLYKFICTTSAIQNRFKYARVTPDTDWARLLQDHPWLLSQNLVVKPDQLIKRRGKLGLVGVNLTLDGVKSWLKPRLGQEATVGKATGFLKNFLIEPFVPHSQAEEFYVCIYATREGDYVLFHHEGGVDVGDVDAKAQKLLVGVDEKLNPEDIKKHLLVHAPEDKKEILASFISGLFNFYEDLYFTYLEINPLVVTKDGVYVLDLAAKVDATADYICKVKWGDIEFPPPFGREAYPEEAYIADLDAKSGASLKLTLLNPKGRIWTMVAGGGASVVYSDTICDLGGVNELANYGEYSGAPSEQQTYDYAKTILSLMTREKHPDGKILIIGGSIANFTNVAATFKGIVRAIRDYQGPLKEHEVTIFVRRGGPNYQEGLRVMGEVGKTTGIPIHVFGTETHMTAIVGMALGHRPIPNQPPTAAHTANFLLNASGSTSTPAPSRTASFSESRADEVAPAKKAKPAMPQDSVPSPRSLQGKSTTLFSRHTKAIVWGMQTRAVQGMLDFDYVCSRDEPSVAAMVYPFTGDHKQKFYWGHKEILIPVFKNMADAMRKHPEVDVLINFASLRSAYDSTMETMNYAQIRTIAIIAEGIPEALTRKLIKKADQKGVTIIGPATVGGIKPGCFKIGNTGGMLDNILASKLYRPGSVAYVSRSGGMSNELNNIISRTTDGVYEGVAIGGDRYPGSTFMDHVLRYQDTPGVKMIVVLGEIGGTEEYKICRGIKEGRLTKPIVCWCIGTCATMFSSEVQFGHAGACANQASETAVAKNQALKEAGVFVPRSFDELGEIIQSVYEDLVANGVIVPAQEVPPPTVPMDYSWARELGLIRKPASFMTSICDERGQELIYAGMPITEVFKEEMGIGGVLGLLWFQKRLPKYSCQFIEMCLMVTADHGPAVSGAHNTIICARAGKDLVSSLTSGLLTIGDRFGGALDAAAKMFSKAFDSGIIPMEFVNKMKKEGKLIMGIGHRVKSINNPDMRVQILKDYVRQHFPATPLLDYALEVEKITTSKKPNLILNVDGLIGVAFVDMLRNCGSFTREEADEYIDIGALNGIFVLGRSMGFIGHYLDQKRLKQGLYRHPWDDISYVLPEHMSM

[2] = Inhibition of duck liver FASN ketoreductase activity; parameters: species or system Anas platyrhynchos
[3] = Inhibition of duck liver FASN; parameters: species or system Anas platyrhynchos
[4] = biological target: T2, Fatty acid synthase (Gallus gallus, UniProt P12276); experiment: Inhibition of chicken liver FASN
T2 sequence (P12276 whole entry): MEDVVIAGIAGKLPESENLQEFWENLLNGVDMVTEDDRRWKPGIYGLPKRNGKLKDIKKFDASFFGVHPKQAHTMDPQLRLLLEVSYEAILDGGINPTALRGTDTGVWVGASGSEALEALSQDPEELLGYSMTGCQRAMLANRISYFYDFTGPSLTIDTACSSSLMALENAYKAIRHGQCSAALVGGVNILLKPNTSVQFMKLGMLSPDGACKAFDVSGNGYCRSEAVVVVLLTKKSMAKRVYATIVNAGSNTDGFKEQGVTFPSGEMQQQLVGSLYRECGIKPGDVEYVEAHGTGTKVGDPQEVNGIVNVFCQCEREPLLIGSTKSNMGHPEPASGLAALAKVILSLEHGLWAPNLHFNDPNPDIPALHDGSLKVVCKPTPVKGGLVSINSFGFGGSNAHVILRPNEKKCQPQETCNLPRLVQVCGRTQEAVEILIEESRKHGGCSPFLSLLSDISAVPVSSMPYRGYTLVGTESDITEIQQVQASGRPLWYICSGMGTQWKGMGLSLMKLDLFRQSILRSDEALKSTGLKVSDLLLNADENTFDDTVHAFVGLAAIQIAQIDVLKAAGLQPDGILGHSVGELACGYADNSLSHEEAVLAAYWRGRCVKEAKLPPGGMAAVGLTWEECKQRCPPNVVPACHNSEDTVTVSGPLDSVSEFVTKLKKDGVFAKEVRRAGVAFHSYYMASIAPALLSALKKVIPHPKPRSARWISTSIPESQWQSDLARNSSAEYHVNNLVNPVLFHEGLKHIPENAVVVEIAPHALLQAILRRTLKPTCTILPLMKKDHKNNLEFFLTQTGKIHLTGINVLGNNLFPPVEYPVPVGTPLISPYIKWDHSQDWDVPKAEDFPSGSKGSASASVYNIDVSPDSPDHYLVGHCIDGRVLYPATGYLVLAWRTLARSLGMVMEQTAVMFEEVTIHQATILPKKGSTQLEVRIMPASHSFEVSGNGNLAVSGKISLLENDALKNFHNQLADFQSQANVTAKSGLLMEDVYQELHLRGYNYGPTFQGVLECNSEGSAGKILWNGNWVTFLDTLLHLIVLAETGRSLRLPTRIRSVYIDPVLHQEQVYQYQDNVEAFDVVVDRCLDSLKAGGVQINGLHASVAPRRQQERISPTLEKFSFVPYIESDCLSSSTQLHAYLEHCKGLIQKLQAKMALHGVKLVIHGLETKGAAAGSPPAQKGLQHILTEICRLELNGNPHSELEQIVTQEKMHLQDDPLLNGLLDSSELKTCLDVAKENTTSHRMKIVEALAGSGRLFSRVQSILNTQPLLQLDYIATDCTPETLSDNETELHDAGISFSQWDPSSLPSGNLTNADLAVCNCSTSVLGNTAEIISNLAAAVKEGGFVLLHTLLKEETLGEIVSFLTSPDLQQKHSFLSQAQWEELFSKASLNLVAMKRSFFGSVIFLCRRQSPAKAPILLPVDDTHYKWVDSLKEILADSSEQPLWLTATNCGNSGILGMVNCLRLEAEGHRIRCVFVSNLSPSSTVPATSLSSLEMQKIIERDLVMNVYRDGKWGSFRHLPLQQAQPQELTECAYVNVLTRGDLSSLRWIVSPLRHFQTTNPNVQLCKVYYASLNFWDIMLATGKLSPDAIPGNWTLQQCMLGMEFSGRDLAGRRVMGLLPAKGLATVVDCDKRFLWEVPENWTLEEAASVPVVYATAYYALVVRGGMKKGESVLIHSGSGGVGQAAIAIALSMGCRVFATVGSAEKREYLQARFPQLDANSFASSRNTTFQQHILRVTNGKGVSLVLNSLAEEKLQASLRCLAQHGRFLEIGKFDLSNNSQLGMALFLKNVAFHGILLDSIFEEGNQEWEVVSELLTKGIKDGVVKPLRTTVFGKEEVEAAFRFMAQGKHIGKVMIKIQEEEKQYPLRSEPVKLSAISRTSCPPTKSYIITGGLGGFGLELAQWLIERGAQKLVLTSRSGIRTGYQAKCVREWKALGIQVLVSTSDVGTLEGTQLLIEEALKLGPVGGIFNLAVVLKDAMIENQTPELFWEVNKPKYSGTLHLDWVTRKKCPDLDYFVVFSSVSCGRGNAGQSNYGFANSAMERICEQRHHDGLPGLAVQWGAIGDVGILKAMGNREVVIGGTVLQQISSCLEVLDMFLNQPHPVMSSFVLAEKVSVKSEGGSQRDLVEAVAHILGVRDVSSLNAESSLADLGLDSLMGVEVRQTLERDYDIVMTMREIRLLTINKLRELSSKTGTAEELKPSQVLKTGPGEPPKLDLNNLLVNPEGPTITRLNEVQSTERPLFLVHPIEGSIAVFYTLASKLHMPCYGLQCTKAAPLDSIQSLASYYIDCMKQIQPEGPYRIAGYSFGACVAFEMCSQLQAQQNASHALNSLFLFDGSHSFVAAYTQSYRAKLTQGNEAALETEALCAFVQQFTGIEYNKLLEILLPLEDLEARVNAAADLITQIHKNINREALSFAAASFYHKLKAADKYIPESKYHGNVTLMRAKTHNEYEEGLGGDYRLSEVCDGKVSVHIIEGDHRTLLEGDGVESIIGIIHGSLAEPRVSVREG

[5] = biological target: T3, Fatty acid synthase (Homo sapiens, UniProt P49327); experiment: Inhibition of FASN in human A375 cells; format: cell-based, A-375
T3 sequence (P49327 whole entry): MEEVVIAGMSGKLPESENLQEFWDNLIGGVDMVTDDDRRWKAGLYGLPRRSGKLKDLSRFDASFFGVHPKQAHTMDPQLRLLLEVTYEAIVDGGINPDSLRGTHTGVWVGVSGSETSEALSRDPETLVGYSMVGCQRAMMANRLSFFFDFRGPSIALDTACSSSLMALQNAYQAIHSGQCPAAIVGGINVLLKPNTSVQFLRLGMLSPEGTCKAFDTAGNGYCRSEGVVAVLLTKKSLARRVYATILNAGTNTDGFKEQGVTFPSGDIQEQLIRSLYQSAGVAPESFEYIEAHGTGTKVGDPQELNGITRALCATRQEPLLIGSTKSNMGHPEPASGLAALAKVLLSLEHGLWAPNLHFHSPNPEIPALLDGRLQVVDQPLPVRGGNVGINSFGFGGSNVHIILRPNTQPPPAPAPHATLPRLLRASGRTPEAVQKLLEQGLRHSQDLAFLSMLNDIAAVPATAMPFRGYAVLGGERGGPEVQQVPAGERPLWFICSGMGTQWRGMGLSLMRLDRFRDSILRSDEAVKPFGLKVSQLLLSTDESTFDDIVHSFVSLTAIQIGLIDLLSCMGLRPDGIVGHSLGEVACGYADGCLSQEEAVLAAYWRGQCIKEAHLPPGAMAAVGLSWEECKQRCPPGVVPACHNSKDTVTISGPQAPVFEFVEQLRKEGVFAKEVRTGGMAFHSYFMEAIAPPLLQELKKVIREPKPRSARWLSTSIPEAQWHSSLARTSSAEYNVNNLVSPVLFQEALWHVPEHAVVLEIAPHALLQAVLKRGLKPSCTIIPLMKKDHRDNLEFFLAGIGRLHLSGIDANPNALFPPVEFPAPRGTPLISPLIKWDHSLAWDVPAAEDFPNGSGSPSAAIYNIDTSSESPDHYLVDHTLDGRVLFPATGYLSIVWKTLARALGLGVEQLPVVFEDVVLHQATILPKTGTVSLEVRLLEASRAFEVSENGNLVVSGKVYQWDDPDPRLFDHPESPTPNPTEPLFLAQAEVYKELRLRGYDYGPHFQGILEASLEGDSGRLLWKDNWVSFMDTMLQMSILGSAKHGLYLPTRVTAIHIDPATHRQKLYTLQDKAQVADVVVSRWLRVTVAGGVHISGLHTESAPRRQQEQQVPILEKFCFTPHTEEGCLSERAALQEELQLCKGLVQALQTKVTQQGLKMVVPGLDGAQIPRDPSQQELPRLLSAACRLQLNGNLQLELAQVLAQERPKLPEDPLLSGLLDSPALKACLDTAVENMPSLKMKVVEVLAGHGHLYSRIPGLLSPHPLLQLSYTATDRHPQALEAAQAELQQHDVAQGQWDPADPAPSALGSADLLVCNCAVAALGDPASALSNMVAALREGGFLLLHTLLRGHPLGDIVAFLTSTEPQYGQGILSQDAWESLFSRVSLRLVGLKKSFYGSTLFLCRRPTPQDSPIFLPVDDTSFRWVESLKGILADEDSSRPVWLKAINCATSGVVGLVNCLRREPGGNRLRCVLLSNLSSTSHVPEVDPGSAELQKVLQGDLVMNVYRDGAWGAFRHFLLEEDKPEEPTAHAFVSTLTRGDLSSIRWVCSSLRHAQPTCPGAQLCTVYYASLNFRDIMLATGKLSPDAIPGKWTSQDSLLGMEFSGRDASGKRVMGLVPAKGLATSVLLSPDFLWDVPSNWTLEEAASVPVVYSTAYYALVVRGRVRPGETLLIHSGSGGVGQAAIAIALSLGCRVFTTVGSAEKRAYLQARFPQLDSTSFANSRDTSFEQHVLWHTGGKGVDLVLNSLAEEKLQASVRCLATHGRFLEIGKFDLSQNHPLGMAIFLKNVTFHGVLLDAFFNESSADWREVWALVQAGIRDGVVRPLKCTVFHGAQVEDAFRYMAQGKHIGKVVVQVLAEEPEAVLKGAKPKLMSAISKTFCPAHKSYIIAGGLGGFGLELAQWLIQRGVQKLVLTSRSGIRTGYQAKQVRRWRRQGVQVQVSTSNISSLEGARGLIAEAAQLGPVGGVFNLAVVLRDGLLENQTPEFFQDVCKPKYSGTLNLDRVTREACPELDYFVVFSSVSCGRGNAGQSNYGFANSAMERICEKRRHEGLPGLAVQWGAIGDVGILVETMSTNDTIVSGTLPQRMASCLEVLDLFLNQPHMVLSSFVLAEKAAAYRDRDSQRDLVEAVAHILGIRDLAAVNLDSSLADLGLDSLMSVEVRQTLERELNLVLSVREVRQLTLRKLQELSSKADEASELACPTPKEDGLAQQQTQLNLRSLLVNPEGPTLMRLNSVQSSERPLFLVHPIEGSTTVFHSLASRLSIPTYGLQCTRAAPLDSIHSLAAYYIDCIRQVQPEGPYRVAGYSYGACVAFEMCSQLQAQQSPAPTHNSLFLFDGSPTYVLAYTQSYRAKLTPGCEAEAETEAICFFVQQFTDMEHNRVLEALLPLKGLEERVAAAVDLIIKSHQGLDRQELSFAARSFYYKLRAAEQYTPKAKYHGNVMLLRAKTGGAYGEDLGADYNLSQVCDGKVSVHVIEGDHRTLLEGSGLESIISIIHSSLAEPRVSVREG

[6] = biological target: T2, Fatty acid synthase; experiment: Inhibition of chicken liver FASN ketoreductase activity
[7] = test system: HepG2; experiment: Cytotoxicity against human HepG2 cells by MTT assay; format: functional, cell-based
[8] = biological target: T4, ATP-citrate synthase (Rattus norvegicus, UniProt P16638)
T4 sequence (P16638 whole entry): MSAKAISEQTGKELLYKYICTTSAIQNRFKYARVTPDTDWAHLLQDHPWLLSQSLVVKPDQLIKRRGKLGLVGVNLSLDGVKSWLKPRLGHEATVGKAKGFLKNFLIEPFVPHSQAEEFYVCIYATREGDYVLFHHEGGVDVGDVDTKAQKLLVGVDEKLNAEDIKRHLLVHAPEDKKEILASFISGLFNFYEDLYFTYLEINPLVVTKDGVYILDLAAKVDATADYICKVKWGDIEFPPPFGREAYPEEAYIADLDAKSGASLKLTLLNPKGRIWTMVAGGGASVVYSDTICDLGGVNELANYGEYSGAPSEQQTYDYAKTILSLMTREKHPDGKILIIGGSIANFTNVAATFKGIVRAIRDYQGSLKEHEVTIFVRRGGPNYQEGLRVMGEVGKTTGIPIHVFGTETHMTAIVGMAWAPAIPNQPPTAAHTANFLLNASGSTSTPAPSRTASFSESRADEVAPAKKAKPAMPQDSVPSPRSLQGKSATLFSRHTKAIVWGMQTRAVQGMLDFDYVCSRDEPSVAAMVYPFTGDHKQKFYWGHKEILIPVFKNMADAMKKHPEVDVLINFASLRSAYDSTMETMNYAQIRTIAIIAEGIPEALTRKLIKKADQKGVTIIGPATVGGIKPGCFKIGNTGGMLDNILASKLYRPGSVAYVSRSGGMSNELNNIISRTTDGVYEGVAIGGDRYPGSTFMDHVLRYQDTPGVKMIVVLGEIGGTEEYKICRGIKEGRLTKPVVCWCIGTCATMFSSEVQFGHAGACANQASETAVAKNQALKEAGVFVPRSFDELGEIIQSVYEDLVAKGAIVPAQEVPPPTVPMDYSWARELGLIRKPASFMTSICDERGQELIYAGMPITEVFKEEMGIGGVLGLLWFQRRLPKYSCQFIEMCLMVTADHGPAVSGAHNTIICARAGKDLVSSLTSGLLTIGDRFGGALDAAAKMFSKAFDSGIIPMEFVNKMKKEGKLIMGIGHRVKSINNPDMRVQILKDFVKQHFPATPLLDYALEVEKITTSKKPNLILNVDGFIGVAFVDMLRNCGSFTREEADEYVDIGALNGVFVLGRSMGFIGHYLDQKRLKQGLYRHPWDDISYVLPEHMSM
Description: Inhibition of rat liver ACLY

[9] = Inhibition of Ustilago maydis recombinant ACC expressed in Escherichia coli BL21(DE3) using acetyl coA as substrate and [14C]NaHCO3 incubated for 10 mins prior to substrate addition by liquid scintillation counting; parameters: species or system Mycosarcoma maydis
[10] = Inhibition of acetyl coA carboxylase in human MCF7 cells; format: cell-based
[11] = biological target: T3, Fatty acid synthase; experiment: Inhibition of human recombinant FASN thioesterase domain

Compound: O=C(O[C@@H]1Cc2c(O)cc(O)cc2O[C@H]1c1ccc(O)c(O)c1)c1cc(O)c(O)c(O)c1 [(-)-CATECHINGALLATE]
IC50 [2]: 30.1 µM | IC50 [3]: 3.4 µM

Compound: C/C=C/C/C=C/CCC(=O)[C@H]1O[C@H]1C(N)=O [CERULENIN]
IC50 [5]: 21.9 µM

Compound: O=C(O[C@@H]1Cc2c(O)cc(O)cc2O[C@@H]1c1cc(O)c(O)c(O)c1)c1cc(O)c(O)c(O)c1 [EPIGALOCATECHIN GALLATE]
IC50 [6]: 100 µM | IC50 [4]: 52 µM

Compound: O=c1cc(-c2ccc(O)c(O)c2)oc2cc(O)cc(O)c12 [LUTEOLIN]
IC50 [7]: 71.2 µM | IC50 [3]: 2.52 µM

Compound: CC(Cc1ccc(O)c(O)c1)C(C)Cc1ccc(O)c(O)c1 (centres undefined) [NORDIHYDROGUAIARETIC ACID]
IC50 [2]: 427 µM | IC50 [3]: 9.3 µM

Compound: O=C1C(c2ccc(O)c(O)c2)=c2c(c3c(n2CCc2ccc(O)cc2)=C(c2ccc(O)c(O)c2)C(=O)c2cc(O)c(O)cc2-3)-c2cc(O)c(O)cc21 [PURPURONE]
IC50 [8]: 7 µM

Compound: O=c1c(O)c(-c2ccc(O)c(O)c2)oc2cc(O)cc(O)c12 [QUERCETIN]
IC50 [7]: 30.9 µM | IC50 [3]: 4.29 µM

Compound: CO[C@H]1CCCC[C@@H](c2ccccc2)OC(=O)[C@@H](C)[C@@]2(O)O[C@H]([C@@H](C)[C@H](O)[C@H]2OC)[C@@H](C)/C=C/[C@H]1OC [SORAPHEN A]
Ki [9]: 0.0021 µM

Compound: H-KNPQLR-OH
IC50 [6]: 80 µM

Compound: H-RKQEEDEDEEQQRE-OH
IC50 [6]: 16 µM | IC50 [11]: 11 µM

The next lines start with results.

Ki [1]: 0.58 µM
Compound: Cc1cn(-c2cc(Cl)ccc2CCCCCC[C@H](O)C[C@@](O)(CC(=O)O)C(=O)O)cc1C (stereo in doubt; 134)

Ki [1]: 0.34 µM
Compound: Cc1cn(-c2cc(Cl)ccc2CCCCCC[C@H](O)C[C@@](O)(CC(=O)O)C(=O)O)cc1C (stereo in doubt; 135)

IC50 [4]: 6.15 µM
Compound: O=c1c(O[C@@H]2O[C@@H](CO)[C@H](O)[C@H]2O)c(-c2ccc(O)c(O)c2)oc2cc(O)cc(O)c12 [AVICULARIN]

IC50 [3]: 18.8 µM
Compound: O=c1c(O)c(-c2ccc(O)c(O)c2)oc2cc(O)ccc12 [FISETIN]
IC50 [7]: > 400 µM

IC50 [2]: 141 µM | IC50 [3]: 8.8 µM
Compound: O=C(/C=C/c1ccc(O)cc1)c1ccc(O)cc1O [ISOLIQUIRITIGENIN]

IC50 [3]: 10.4 µM
Compound: O=c1c(O)c(-c2ccc(O)cc2)oc2cc(O)cc(O)c12 [KAEMPFEROL]
IC50 [7]: > 400 µM

IC50 [2]: 26 µM | IC50 [3]: 2.3 µM
Compound: O=c1c(O)c(-c2ccc(O)cc2O)oc2cc(O)cc(O)c12 [MORIN]

IC50 [2]: 120 µM | IC50 [3]: 8.5 µM
Compound: Oc1ccc(/C=C/c2cc(O)cc(O)c2)cc1 [RESVERATROL]

IC50 [10]: 12.3 µM
Compound: CCCCCCCCCCCCCCOc1ccc(C(=O)O)o1 [TOFA]

IC50 [6]: 59.3 µM | IC50 [4]: 13.1 µM
Compound: C[C@H]1[C@H](C)CC[C@]2(C(=O)O)CC[C@]3(C)C(=CC[C@@H]4[C@@]5(C)CC[C@H](O)C(C)(C)[C@@H]5CC[C@]43C)[C@H]12 [URSOLIC ACID]

IC50 [6]: 27 µM | IC50 [11]: 10 µM
Compound: H-EITPEKNPQLR-OH
